Patent US20030108872A1, “Genomics-assisted rapid identification of targets” (priority 2000, published 2003)

Columns and labels:
Type in all cases: cell-based
[1] = tested on: cells in which folA is regulated by PBAD, PLtetO-1, or Plac/ara-1; assay: MIC by microbroth dilution in E. coli under-expressing folA; details: for MIC with decreasing regulator level: PLtetO-1 or Plac/ara-1, regulators L-arabinose, anhydrotetracycline, IPTG, FIG. 3
Experimental: In another example, the wild-type native folA gene was knocked out, and a wild-type copy of the gene folA, which encodes the protein dihydrofolate reductase, was placed under ectopic expression in the yibD locus under regulation by PBAD with the regulator, L-arabinose. Dihydropteroate synthetase, the gene product of […], catalyzes the enzymatic reaction two steps before dihydrofolate reductase in the folate biosynthetic pathway.
Methods. […] IPTG was added to a final concentration of 0.1 mM and anhydrous-tetracycline was added to a final concentration of 100 ng/ml to the culture media for routine growth of GTC-EC#313 and GTC-EC#346, respectively.
The specificity and sensitivity of the resultant colonies to added drugs were followed by measuring the minimal inhibitory concentration (MIC) of trimethoprim, sulfamethozasone, phosphomycin and D-cycloserine at varying regulator levels. This was performed according to NCCLS (National Center for Clinical Laboratory Standards) recommendations(NCCLS, 1997, METHODS FOR DILUTION ANTIMICROBIAL SUSCEPTIBILITY TESTS FOR BACTERIA THAT GROW AEROBICALLY, 4th ed.; approved standard. NCCLS document M7-A4. NCCLS, Wayne, Pa.), in 100 μl volume in 96-well format, with serial two-fold dilutions of drug concentration.

[2] = tested on: E. coli MC1061, Ec211, Ec261, Ec239, Ec238; assay: Transformation selection: growth on drug plates of strains over-expressing folA or murA; details: for growth on MHB plates supplemented with drug: 5 μg/ml trimethoprim or 25 μg/ml phosphomycin, no L-arabinose, all strains, FIG. 15
From the text: Methods. The genes folA, and murA were amplified from the genomic DNA of E. coli. Each gene was independently cloned in frame into pBAD/Myc-HisB vector, such that expression of the gene is under the regulation of the promoter PBAD. Hexahistidine encoding tags were incorporated into the 3′ end of the gene encoding the C-terminus of the protein through primer design. The construct introduced into the host cells of E. coli MC1061, resulting in Ec211 (construct with folA) and Ec261 (construct with murA).
The entire vector region (araC, PBAD, folA or murA, ampicillin resistance gene) of the above two constructs, but minus the origin, was PCR amplified through primer pairs homologous to regions flanking the origin. The PCR products were then linked at their 5′ ends to the 1 kb region upstream of yibD locus, and linked at their 3′ ends to the 1 kb region downstream of E. coli yibD locus (in effect, replacing yibD) by “crossover PCR” (Kim et al., 1996 Biotechniques 20: 954-5). The linear DNA product was gel purified and introduced into competent and recombinogenic MC1061. Recombinogenic ability was supplied by the red/gam function of plasmid pTP223.
Ec211, […], Ec238, Ec239, and MC1061 were freshly streaked onto Mueller Hinton Broth (MHB) plates. After an overnight incubation at 37° C., they were streaked into different segments onto different selection plates in the order of MHB supplemented with 5 μg/ml trimethoprim, MHB supplemented with 5 μg/ml trimethoprim and 0.1% L-arabinose, MHB supplemented with 25 μg/ml phosphomycin, MHB supplemented with 25 μg/ml phosphomycin and 0.1% L-arabinose, MHB supplemented with 0.1% L-arabinose, and finally plain MHB plates. The plates are 10 cm circular plates filled with 30 ml of media and divided into 6 equal segments. MC1061 was streaked in the first segment, Ec211 in second, Ec261 in third, Ec239 in fourth, Ec238 in fifth and the sixth segment was left blank.

[3] = tested on: B. subtilis NO-347 (BD170 thrC::Pspac-murA kanR ΔmurA::CmR); assay: MIC by microbroth dilution in B. subtilis under-expressing murA; details: IPTG 0-0.1 mM, compared to the control strain, FIG. 10
Experimental: Materials and Methods. The materials are the same as discussed above. Plasmids are listed in Table 4 B. subtilis strains were routinely grown in LB media or on LB agar plates containing 1.5% agar (Sambrook et al., MOLECULAR CLONING: A LABORATORY MANUAL, 2nd ed., Cold Spring Harbor Laboratory Press, 1989). MIC determination is performed using microbroth dilution-cultures grown in Mueller Hinton broth in 96-well microtiter plates purchased from Nunc (Plates—Cat. No. 262162; Lids—Cat. No. 264122). When required, media were supplemented with 5 μg/ml chloramphenicol or 10 μg/ml kanamycin. IPTG was added to culture media at a final concentration of 0.05 mM for routine culture growth of B. subtilis NO-347 (BDI70 thrC::Pspac-murA kan^R ΔmurA::Cm^R), which is dependent on IPTG for growth.
The endogenous murA gene in NO-360 was deleted by allelic replacement as follows (see FIG. 9). DNA fragments flanking the 5′ and 3′ ends of the murA gene were amplified from B. subtilis 168 genomic DNA using primer pairs KO mura F1+R2 and KO murA F2+R1, respectively. The 5′ and 3′ flanking fragments were linked to the Cm^R gene from pEVP3 using the cross-over PCR technique with the primer pair KO mura F1+R1. The resulting PCR product (shown in FIG. 9B) was used to transform naturally competent B. subtilis NO-360. Cm^R clones were selected in the presence of 0.01 mM and 0.05 mM IPTG. Allelic replacement of murA in Cm^R clones was verified by PCR. Strain NO-347 (BD170 thrC::Pspac-murA Kan^R ΔmurA::Cm^R) was chosen for MIC determinations for phosphomycin in presence of various concentrations of the regulator IPTG.
MIC determinations. Determination of minimum inhibitory concentration (MIC) for phosphomycin, novobiocin, erythromycin and trimethoprim lactate were performed in 96-well microliter plates using the microbroth dilution technique as described in NCCLS. 1997. Methods for dilution antimicrobial susceptibility tests for bacteria that grow aerobically-fourth edition; approved standard. NCCLS document M7-A4. NCCLS, Wayne, Pa. For MIC determinations using strain NO-347, various concentrations (0-0.1 mM) were added to the media. Growth was quantitated by OD600 measurements using a SpectroMax 250 plate reader (Molecular Devices).

COc1cc(Cc2cnc(N)nc2N)cc(OC)c1OC [trimethoprim]
MIC with decreasing regulator (L-arabinose) level ([1]; FIG. 5): decreases | MIC with decreasing regulator level [1]: decreases | growth on MHB plates with drug and L-arabinose (over-expression rescue) ([2]; 5 μg/ml trimethoprim and 0.1% L-arabinose, Ec211 (multiple copies of folA, PBAD)): the only strain that grew up | growth on MHB plates supplemented with drug [2]: Nothing grew | sensitivity (MIC) on regulated under-expression of murA [3]: does not affect sensitivity

C[C@@H]1O[C@@H]1P(=O)(O)O [phosphomycin]
MIC with decreasing regulator level [1]: relatively unchanged | growth on MHB plates supplemented with drug [2]: Nothing grew | growth on MHB plates with drug and L-arabinose (over-expression rescue) ([2]; 25 μg/ml phosphomycin and 0.1% L-arabinose, Ec261 (multiple copies of murA) and Ec238 (two copies of murA)): grew up | sensitivity (MIC) on regulated under-expression of murA [3]: increased sensitivity
